The subject of this experiment is Alkaline Phosphatase (ALP) activity in dermal papilla (DP) cells treated with FGF-5. Kind of experiment: Dermal papilla alkaline phosphatase (DP-ALP) cell assay. Format: cell-based, human. The following applies: for relative ALP activity of DP cells treated FGF-5: 0.005-0.5 mg/ml, GSK3 inhibitor IX + rhFGF-5 1 μg/mL, 3 days, absorbance 490 nm. The method, then:
Dermal papilla cells were prepared according to the methods described in WO2013/105417, Briefly, hairs were pulled from the scalp of a healthy subject showing normal non-alopecia hair growth using tweezers. Hair follicles with dermal papilla were thus obtained at a rate of approximately one for every 100 hairs pulled. The hair follicles with dermal papilla were separated from the hair using tweezers and transferred into a saline for inspection under a microscope. Under a microscope, each dermal papilla was isolated from a respective hair follicle using tweezers and a scalpel. Approximately 2000 isolated dermal papilla cells were then transferred to a 35 mm cell culture dish together 1-2 ml of cell culture medium, after which time the cells were cultured at 37° C. to produce a primary cell culture of dermal papilla. The cell culture medium consisted of approximately 90% DMEM medium, 10% fetal bovine serum (final concentration: 10%), FGF2 (final, concentration: 10 ng/ml), and penicillin-streptornycin solution (final concentration: 1 μg/ml) for every 2 mL of medium. Cell culture conditions were maintained for more than 14 days until dermal papilla cells covered approximately 40% of the area of the 35 mm culture dish, at which time subcultures were performed. To prepare the subcultures, the cell culture medium was removed from the 35 mm culture dish and the adherent cells were washed once with 2 ml of saline (at room temperature). 1 ml Trypsin-EDTA solution (0.1% trypsin and 0.02% EDTA) was then added to the 35 mm culture dish and left to stand for 4 minutes at 37° C. Dissociated dermal papilla cells were then recovered from the 35 mm dish, and seeded to a new 100 mm dish, and cultured in media under the same conditions as for the primary cell culture described above.
When the dermal papilla cells covered approximately 70-80% of the area of each 100 mm culture dish, the sub-confluent cells were subcultured as before. The process was repeated until sufficient cells were obtained to screen compounds of interest.
Once sufficient DP cells were obtained, the cells were harvested to provide a cell suspension. To harvest the DP cells, the cell culture medium was removed from the culture dish, and the adherent cells were washed with saline at room temperature. Trypsin-EDTA solution was then added under conditions described supra to dissociate the cells from the cell culture dish. Approximately 5×10^5 of the dissociated cells were resuspended in 500 ml of assay medium containing 445 ml of DMEM medium, 50 ml of 10% fetal calf serum and 5 ml of antibiotic.
Aliquots of the cell suspension were transferred to the wells of cell culture dishes, and a single monoterpenoid listed in Example 1 e.g., (−)-4-terpinen-4-ol, (+)-4-terpinen-4-ol. (±)-4-terpinen-4-ol, α-terpineol, nonanal, linalyl acetate or piperitone, is added to each well at a concentration of 0.005 (mg/ml) or 0.01 (mg/ml) or 0.05 (mg/ml) or 0.1 (mg/ml) or 0.5 (mg/ml). Cell suspensions were transferred to wells of a further cell culture dish to which minoxidil was then added at a concentration of 0.005 (mg/ml) or 0.01 (mg/ml) or 0.05 (mg/ml) or 0.1 (mg/ml) or 0.5 (mg/ml). A Wnt/β-catenin pathway activation agent e.g., Wnt3a or GSK-3 Inhibitor IX, as added to each of the cell cultures to produce an “activated cell culture”. Control cell cultures containing the same monoterpenoid compound or minoxodil, but lacking the Wnt/β-cinenin pathway activation agent, were processed in parallel. These activated and control cell cultures were divided further into duplicate cell culture samples either lacking FGF-5 or to which recombinant human FGF-5 (rhFGF-5; 1 μg/mL)) was added.
The cell culture samples were each cultured at 37° C. for 3 days under atmosphere containing less than 5% CO2. […]

Molecules are shown by their SMILES. “Also recorded” adds a separate entry of the source.

As to `CC1=CC(=O)C(C(C)C)CC1` (stereo not drawn) [Piperitone, 3-Methyl-6-(propan-2-yl)cyclohex-2-en-1-one], the “relative ALP activity of DP cells treated FGF-5” value is listed as “increased relative ALP activity”. Besides, the “relative ALP activity of DP cells treated FGF-5” value (listed as piperitone) is “high alkaline phosphatase activity; also recorded: higher alkaline phosphatase activity in dermal papillae than a racemic mixture of terpinen-4-al or (+)-Terpinen-4-ol”. Further, the “FGF-5-inhibitory activity ranked from most active to least active by DP-ALP assay” value (rank order) was “Piperitone>(−)-terpinen-4-ol>(±)-Terpinen-4β-Terpineol> (+)-Terpinen-4-ol > Linalyl Acetate”.

These data come from patent publication US20160374979A1, “Method of Treatment of Alopecia with Monoterpenoids” (CELLMID LIMITED, priority 2013, published 2016).
